Test in all cases: Ba/F3 cell viability, Cell Titer Glo
(Cellular ATP, detected with luciferase, serves as a proxy for viable cell number.)

In one assay the target is EGFR L858R/L718V (Homo sapiens, UniProt P00533, L718V/L858R). The conditions noted are these: read-out: IC50 Values; Ba/F3 cells expressing EGFR L858R/L718V, 72 hours.
A further assay deals with EGFR L858R T790M/C797S (Homo sapiens, UniProt P00533, C797S/L858R/T790M). To be noted: read-out: IC50 Values; Ba/F3 cells expressing EGFR L858R T790M/C797S, 72 hours.
A further assay addresses EGFR Ex19delT854l (Homo sapiens, UniProt P00533, DEL746-750/T854I). To be noted: read-out: IC50 Values; Ba/F3 cells expressing EGFR Ex19delT854l, 72 hours.
For a further assay, the target named is EGFR S811F (Homo sapiens, UniProt P00533, S811F). To be noted: read-out: IC50 Values; Ba/F3 cells expressing EGFR S811F, 72 hours.
In the next assay the target is EGFR G724S T790M (Homo sapiens, UniProt P00533, G724S/T790M). The conditions noted are these: read-out: IC50 Values; Ba/F3 cells expressing EGFR G724S T790M, 72 hours.
The next assay has as its target EGFR L858R T790M V843I (Homo sapiens, UniProt P00533, L858R/T790M/V843I). To be noted: read-out: IC50 Values; Ba/F3 cells expressing EGFR L858R T790M V843I, 72 hours.
Another assay has as its target EGFR G719S (Homo sapiens, UniProt P00533, G719S). To be noted: read-out: IC50 Values; Ba/F3 cells expressing EGFR G719S, 72 hours.
For a further assay, the target named is EGFR T790M (Homo sapiens, UniProt P00533, T790M). To be noted: read-out: IC50 Values; Ba/F3 cells expressing EGFR T790M, 72 hours.

Data on one molecule can be found in US20260240847A1, “COMPOUNDS WITH ANTI-TUMOR ACTIVITY AGAINST CANCER CELLS BEARING TYROSINE KINASE INHIBITOR RESISTANT EGFR MUTATIONS” (BOARD OF REGENTS, THE UNIVERSITY OF TEXAS SYSTEM, priority 2019, published 2026).

As usually defined, the IC50 is the concentration at which inhibition is half-maximal.

With `C=CC(=O)N1CC[C@@H](Oc2nc(Nc3ccc(N4CCC(N5CCN(C)CC5)CC4)cc3)c(C(N)=O)nc2CC)C1` [Naquotinib], the IC50 was 18.8 nM on EGFR L858R/L718V; 4.35 µM on EGFR L858R T790M/C797S; 112 nM at EGFR Ex19delT854l; 173 nM at EGFR S811F; 18.8 nM at EGFR G724S T790M; 2.05 nM at EGFR L858R T790M V843I. Further, the values for the IC50 at EGFR G719S and on EGFR T790M were 36.7 nM and 54.4 nM, respectively.
